According to patent US7316913B2, “Methods and means for influencing intracellular communication and intracellular organelle transport” (Stiftelsen Universitetsforskning Bergen, priority 2001, dated 2008):

Assays:
[1] = test system: VP22 intercellular exchange; conditions: destruction of the filamentary actin; cited from earlier work
TNTs between PC12 cells [2] = format: cell-based, rat
PC12 cells [3] = experiment: Thymidin G1/S cell cycle block: mitosis stadia and TNT formation; format: cell-based, rat; conditions: 2.5 mM thymidin, 14 hours before passage; analysed ca. 1 hour after passage
Experimental: FIG. 12a—fluorescence microscopy image of PC12 cells ca. 1 hour after cell passage and staining with WGA, 20 minutes fixing in 4% paraformaldehyde/4% sucrose, 3 minutes treatment with 0.2% TRITON™ X-100 and nucleus staining with Dapi—left images in (a): the 14 hour long treatment of the cells before passage with 2.5 mM thymidin in the cell culture medium blocked the cells in the G1/S phase of the cell cycle and prevented a division of the cells; right images in (a): in non-treated PC12 cells (controls) there can be observed in the nucleus staining mitosis stadia (arrows). Despite the absence of mitosis stadia the thymidin treated PC12 cells form TNTs (arrow tips), (bar: 20 micrometer);
Via a three-dimensional videomicroscopic analysis of suprarenal medulla cells in accordance with Example 1 point 2a, b there was detected the formation of an organized TNT based network between the cells, via which a syncytium arises (FIGS. 2e, f, FIGS. 3n-q2, FIGS. 4a-c) and organelles can be unidirectionally transferred (FIGS. 4d-h, FIG. 14). TNTs were, in accordance with Example 16 found in all to date investigated cells structure systems such as PC12 cells, HEK cells (FIG. 16a) and primary cultures of the medulla (FIG. 16b) and of the hippocampus (FIG. 16c). With a special colouring method, moreover, very long TNTs have been found. […]

TNTs between PC12 cells [4] = experiment: Number of TNTs in PC12 cells after cholesterol extraction (WGA staining, three-dimensional microscopy); format: cell-based, rat; conditions: half an hour, 2 h after passage, vs saccharose controls
PC12 cells [5] = experiment: Filipin staining of cellular cholesterol content; format: cell-based, rat; conditions: 5 millimolar methyl-β-cyclodextrin; filipin fluorescence, mean grey scale values
Experimental: FIG. 18—the effect of cholesterol on the stability of TNTs. Two hours after passage of PC12 cells, the cell culture medium was exchanged for DMEM with 5, 8 or 10 millimolar saccharose (controls) or DMEM with 5, 8 or 10 mM methyl-β-cyclodextrin and the cells incubated for half an hour at 30° C. and 10% CO2. After the addition of WGA a three-dimensional analysis of 10 randomly selected microscopic fields was carried out (Olympus IX70, 100× objective, […]™ System, Piezo-z-stepper, in each case 40 sections) and the number of TNTs determined. […] Quantifications yielded a strong reduction of the TNT number with increasing methyl-β-cyclodextrin concentration; 40% reduction at 5 millimolar methyl-β-cyclodextrin; 93% reduction at 8 millimolar methyl-β-cyclodextrin; 100% at 10 millimolar methyl-β-cyclodextrin (c1). […] For this purpose, the methyl-β-cyclodextrin or saccharose containing DMEM of the analysed cell was exchanged with DMEM having 20 microgramm per millilitre filipin and 15 minutes later the intensity of the fluorescence staining analysed in vivo with a FITC/TRITC/DAPI filter set (Chroma, Brattleboro). In detail, after excitation at 400 nm four randomly selected microscopic fields were imaged and the mean grey scale values determined. […]

Compound: C=C1[C@@H](C)[C@H]2[C@H](Cc3ccccc3)NC(=O)[C@]23[C@H](OC(C)=O)/C=C/[C@@](C)(O)C(=O)[C@@H](C)C/C=C/[C@H]3[C@@H]1O [cytochalasin D]
- intercellular exchange of VP22 [1]: can be prevented

Compound: C/C1=C/C(=O)O[C@@H]2C[C@@H](CC[C@H](C)/C=C\CC1)O[C@@](O)([C@@H]1CSC(=O)N1)C2 [latrunculin B]
- effect on TNT formation and on TNTs present (TNTs between PC12 cells [2]): TNTs no longer form and TNTs present are destroyed

Compound: Cc1cn([C@H]2C[C@H](O)[C@@H](CO)O2)c(=O)[nH]c1=O [thymidin]
- TNT formation retained in comparison with the controls (PC12 cells [3]): 86.5%
- number of mitosis stadia in comparison with the controls (PC12 cells [3]): 20%

Compound: methyl-β-cyclodextrin
- reduction of the TNT number (TNTs between PC12 cells [4]; 8 millimolar methyl-β-cyclodextrin in DMEM): 93%
- reduction of the TNT number (TNTs between PC12 cells [4]; 10 millimolar methyl-β-cyclodextrin in DMEM): 100%
- reduction of the cellular cholesterol content (PC12 cells [5]): 20%
